Data from patent US11447534B2, “Peptide complex with immunodulatory and anti-inflammatory function” (NATIONAL INSTITUTE OF IMMUNOLOGY, priority 2018, dated 2022).

How the values were obtained:
RAW264.7 macrophages [1] = assay: qPCR of Cd74, Cd36 in serum starved macrophages; format: cell-based, murine; settings: unstimulated RAW264.7 macrophages, with respect to basal
[2] = tested on: iNOS (inducible nitric oxide synthase); assay: iNOS Western blot and Griess nitrite assay in ConA activated macrophages; format: cell-based, murine; settings: ConA induced
Procedure: To determine the anti-inflammatory potential of A-O complex, protein level of iNOS (inducible nitric oxide synthase) in cell lysates and nitrite level in cell culture supernatants were evaluated by Western blot and Griess assay respectively. iNOS antibody used was #2982 from Cell Signaling Technology. For determination of nitrite cell culture media and Griess reagent (5% phosphoric acid containing 0.1% NEDD, 1% sulfanilamide) were mixed and incubated in dark for 10 min at room temperature. The absorbance of the violet colored product and blank (cell culture media) was measured at 540 nm. The concentration of nitrite in the sample was determined from a sodium nitrite (NaNO2) standard curve.

RAW264.7 macrophages [3] = assay: Lactate dehydrogenase (LDH) assay in macrophages; format: cell-based, murine
Procedure: Effect of Abeta-Glu-OC (3 ng) mixture on macrophage integrity: To determine whether the mixture produced any toxicity lactate dehydrogenase (LDH) assay was performed. Briefly, the cells were incubated with the mixture under serum starved conditions for 1 hour followed by LDH assay. LDH was assayed using In vitro toxicology assay kit from Sigma-Aldrich, St. Louis, Mo., USA (cat. no.-TOX7) as per the manufacturer's directions. LDH assay substrate solution, LDH assay dye solution and 1×LDH assay cofactor were provided with the kit. […] To this LDH assay mixture was added and incubated at room temperature in the dark for 20-30 min. The reaction was terminated by the addition of 1/10 volume of 1N HCl. Absorption was taken 490 nm with the help of in a Tecan Microplate reader, Switzerland with Magellan™ software.

[4] = tested on: ConA stimulated EOC20 microglia; assay: F-actin staining and qPCR in ConA stimulated EOC20 microglia; format: cell-based
Procedure: To determine the immunomodulatory effect of A-O complex, serum starved macrophages were exposed to the complex. Macrophages (1×10^6 cells) were serum starved for 30 min after which cells were exposed to A-O complex. After 1 hour, cells were washed with 1×PBS (pH 7.4) and harvested using cell dissociation solution. Then the cells were suspended in ice cold staining buffer (100 μl) and centrifuged at 1000 rpm for 5 min at 4° C. The cells were resuspended in 100 μl ice cold staining buffer for 10 min at 2-8° C. and pellet resuspended in 50 μl staining media. To this 2 μl of Fc block or anti-mouse CD16/CD32 was added for 10 mins and washed with staining buffer. The cells were resuspended in 50 μl of staining buffer and incubated with fluorescent-tagged CD36 antibody (e-biosciences) for 25-30 min on ice. The excess stain was removed by washing and pelleting down using staining buffer thrice by spinning and removal of staining buffer. The cell suspension was fixed 1:1 ratio (staining buffer:fixative) and analysed within 48 h in ARIA3 DIVA software version 6.1. Further, expression of MHC-II, and CD-36, was also determined in the microglial cells via qPCR. For this RNA extraction was performed using RNA extraction kit from Qiagen according to the manufacturer's instruction. cDNA synthesis was performed using cDNA synthesis kit from Qiagen. To perform qPCR, 10 ng cDNA (per well) was amplified using the Light Cycler 480 Sybergreen I Master reagent (Roche Diagnostics, Indianapolis, Ind.) and primers (commercially purchased from SABiosciences, Qiagen) in the Light Cycler 480 (Roche Diagnostics, Switzerland) under following cycling conditions: 3 min at 95° C., 15 sec at 95° C., 20 sec at 60° C., 25 sec at 72° C. for 40 cycles. Following amplification, fold changes in gene expression versus β-actin (reference) analysis was determined using the 2^ΔΔCT(Livak) method.
To determine the immunomodulatory effect of A-O complex in microglia, EOC20 microglial cells from ATCC (CRL-2469) was employed. The cells were cultured in high glucose Dulbecco's […] Essential Media (DMEM) containing 4 mM L-glutamine, 10% fetal bovine serum (FBS) and 20% LADMAC conditioned media. LADMAC media was prepared by growing 80% confluent LADMAC cell line from ATCC (CRL-2420) in alpha-minimal essential media supplemented with 10% FBS for 5 days. The spent supernatant was centrifuged at 1000 rpm for 10 min and the supernatant was filtered as used as LADMAC media. To determine the morphological changes in microglia upon exposure to A-O complex, F-actin confocal microscopy was performed. […]
Next, immunomodulatory effect of A-O complex on activated microglial cells was determined. […] The immunomodulatory effect was assessed via F-actin staining and qPCR.

[5] = ConA stimulated microglia, qPCR

## A-O complex: peptide complex of 100 μM Abeta1-42 (SEQ ID NO: 1) and 3 ng Glu-OC (SEQ ID NO: 2), incubated at 37° C. for 4 hours
RAW264.7 macrophages [1]
  increase in mRNA level of Cd36: 8 fold
  increase in mRNA level of Cd74 (MHC-II): 3 fold
[2]; macrophage cell lysates, Western blot
  iNOS protein expression: reduces the iNOS expression
[2]; macrophage cultures, Griess assay
  nitrite level in cell culture supernatants: reduction in the ConA induced nitrite levels
RAW264.7 macrophages [3]
  intracellular LDH: did not show any rise in intracellular LDH
[4]; [5]
  mRNA level of Cd11b: normalized
  mRNA level of Cd36: induced
  mRNA level of Tnfa: normalized
[4]; EOC20 microglia, ConA 30 mins then A-O complex 1 hour
  microglia morphology (F-actin): presence of cells with ramified process
